According to ChEMBL document CHEMBL5360669, “Novel Pyrazoloquinoline Compounds as KRAS Inhibitors for Treating Cancer” (ACS Med Chem Lett, 2023):
pIC50: −log10 of the molar value.

Columns and labels:
GTPase KRas [1] = biological target: T1, GTPase KRas (Homo sapiens, UniProt P01116, G12C); assay: Inhibition of KRAS G12C mutant (unknown origin) by measuring exchange of bodipy-GDP for GppNHp incubated for 2 hrs
[2] = Inhibition of KRAS G12C WB mutant (unknown origin) incubated for 2 hrs; parameters: species or system Homo sapiens
GTPase KRas [3] = biological target: T1, GTPase KRas; assay: Inhibition of KRAS G12C mutant (unknown origin) incubated for 2 hrs

T1 sequence (P01116 whole entry G12C): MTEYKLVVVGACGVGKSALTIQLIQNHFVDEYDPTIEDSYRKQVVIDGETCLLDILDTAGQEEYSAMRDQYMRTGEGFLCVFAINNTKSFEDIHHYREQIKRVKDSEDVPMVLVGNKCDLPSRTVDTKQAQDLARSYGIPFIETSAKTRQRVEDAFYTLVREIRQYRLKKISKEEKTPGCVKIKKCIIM

pIC50 (GTPase KRas [1]) | pIC50 [2] | pIC50 (GTPase KRas [3]) | SMILES
≥ 7.00 | ≥ 7.00 | ≥ 7.00 | COC/C=C/C(=O)N1CC[C@H](n2ncc3c(O[C@@H](C)[C@@H]4CCCN4C)nc4c(F)c(-c5cccc6cccc(C#N)c56)c(Cl)cc4c32)C[C@H]1CC#N
≥ 7.00 | ≥ 7.00 | ≥ 7.00 | COC/C=C/C(=O)N1CC[C@H](n2ncc3c(O[C@@H](C)[C@@H]4CCCN4C)nc4c(F)c(-c5nccc6cccc(C#N)c56)c(Cl)cc4c32)C[C@H]1CC#N

The next lines start with the compound.

SMILES | pIC50 (GTPase KRas [1]) | pIC50 [2] | pIC50 (GTPase KRas [3])
CC#CC(=O)N1CC[C@H](n2ncc3c(O[C@@H](C)[C@@H]4CCCN4C)nc4c(F)c(-c5nccc6cccc(C#N)c56)c(Cl)cc4c32)C[C@H]1CC#N | ≥ 7.00 | ≥ 7.00 | ≥ 7.00
CC#CC(=O)N1CC[C@H](n2ncc3c(O[C@@H](C)[C@@H]4CCCN4C)nc4c(F)c(-c5cccc6cccc(C#N)c56)c(C)cc4c32)C[C@H]1CC#N | ≥ 7.00 | ≥ 7.00 | ≥ 7.00
C=C(F)C(=O)N1CC[C@H](n2ncc3c(O[C@@H](C)[C@@H]4CCCN4C)nc4c(F)c(-c5nccc6cccc(C#N)c56)c(Cl)cc4c32)C[C@H]1CC#N | ≥ 7.00 | ≥ 7.00 | ≥ 7.00
C=C(F)C(=O)N1CC[C@H](n2ncc3c(N4CC(N(C)CC)C4)nc4c(F)c(-c5c(C)c(C)cc6[nH]ncc56)c(Cl)cc4c32)C[C@H]1CC#N | ≥ 7.00 | ≥ 7.00 | ≥ 7.00
